Laboratory results taken from patent US11161845B2, “Pyrrolopyridine-aniline compounds for treatment of dermal disorders” (Nflection Therapeutics, Inc., priority 2017, dated 2021).

Assays:
[1] = target: T1, MEK1 (Homo sapiens, UniProt Q02750); assay: MEK inhibition assay, Biological Example 1a (33P-ATP, P81 filter-binding); conditions: read-out: Assay 1: biochemical MEK IC50
T1 construct: N-terminal His-tagged recombinant human full length protein; His (N); purchased Invitrogen PV3303; host or cells: insect cells
T1 sequence (Q02750 whole entry): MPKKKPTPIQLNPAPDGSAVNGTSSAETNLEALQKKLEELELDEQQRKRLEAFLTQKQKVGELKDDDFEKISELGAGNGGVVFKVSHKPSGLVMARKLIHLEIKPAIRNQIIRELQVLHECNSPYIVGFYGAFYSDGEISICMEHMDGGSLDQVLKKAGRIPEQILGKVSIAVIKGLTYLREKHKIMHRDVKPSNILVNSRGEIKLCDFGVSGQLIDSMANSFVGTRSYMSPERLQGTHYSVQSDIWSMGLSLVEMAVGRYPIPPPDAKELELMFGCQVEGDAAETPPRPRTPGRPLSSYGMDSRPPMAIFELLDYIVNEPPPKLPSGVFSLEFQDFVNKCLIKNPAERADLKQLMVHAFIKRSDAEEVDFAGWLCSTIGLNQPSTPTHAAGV
Experimental: MEK1 inhibitory activity of compounds were tested using the following procedure. […] Activated in vitro by RAF1. MW=49.2 kDa, GenBank Accession No. NP_002746. • Substrate: 5 μM ERK2 (K52R), • Kinase-dead mutant, (GenBank Accession No. NM_0011949), aa2-358 with N-terminal His6 tag, MW=43.63 kDa, expressed in E. coli.
The substrate was prepared in freshly prepared Reaction Buffer. The kinase was delivered into the substrate solution and gently mixed. Test compounds were delivered in 100% DMSO into the kinase reaction mixture by Acoustic technology (Echo550; nanoliter range), and incubated for 20 min at room temperature. ^33P-ATP was delivered into the reaction mixture to initiate the reaction. The reaction mixture was incubated for 2 hours at room temperature. Kinase activity was detected by P81 filter-binding method.

[2] = test system: C57BL/6J mice; assay: In vivo mouse model, skin and systemic toxicity of topical application (survival); conditions: for Survival Rates: twice daily 5 days per week, 10% BSA
Text: This study was designed to assess the skin toxicity and gross systemic toxicity of twice daily topical administration of a compound disclosed herein, as well as to evaluate the effect of metabolic lability on systemic toxicity.
Study Objective: The primary objective of this study was to characterize the skin and systemic toxicity of twice daily topical application of a compound disclosed herein, applied for 25 days in mice. Secondary objectives included determination of the 25-day skin and plasma compound levels of formulations containing three dosages of compound of Ex. 2 after application to 10% body surface area (BSA) murine skin; assessment of gross systemic toxicity from the application of compound of Ex. 2 after twice daily application to 10% BSA murine skin for 25 days; and determination of the correlation of skin and plasma compound levels with associated toxicity.
Mice: 8 week old male C57BL/6J mice (Jackson Laboratories) were shaved prior to start of study and weekly.
Compound application: Compounds were dissolved in a 50% DMSO/50% propyelene glycol vehicle. 0.125 mL of the following compounds were applied to the shaved dorsal back of mice (10% BSA) twice daily for 5 days per week for a total of 24 days. The second dose was applied 8 hours after first morning dose. All mice were shaved once per week at application site.
Oral trametinib was dissolved in 0.5% hydroxypropyl methylcellulose (Sigma-Aldrich) and 0.2% Tween-80 (Sigma-Aldrich) and administered by oral gavage (0.2 mL bolus or 10 mg/kg) once daily 5 days per week. These mice were also shaved weekly.
Weekly (Weeks 0-4): body weight measurements weekly, starting week 0 until experiment end; photographs of dorsal back and face of each mouse weekly, starting week 0 until experiment end; skin; and gross stool analysis assessed weekly for heme color, starting week 0 until experiment end.
The study planned for the mice to be sacrificed at Day 25.
Kaplan Meier curves were analyzed to determine progression to skin toxicity for each arm as compared with vehicle. T-test were used to compare compound levels at each dosage. Ki-67+ cells and p-ERK expression were also assessed on a cellular level via immunostaining. Western blots informed semi-quantitative changes in p-ERK expression.

[3] = S9 stability assay, human liver S9 fraction; type: in vitro ADME
In short: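 Incubation at 37 °C of 1 μM compound with 2 mg/mL human liver S9 protein and 1 mM NADPH in 100 mM potassium phosphate pH 7.4 (1 mM EDTA, 3 mM MgCl2), sampled at 0, 15, 30, 60 min. Parent loss by LC/MS/MS gave t1/2 and CLint = 0.693/t1/2 × mL incubation/mg S9 protein.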

[4] = Plasma LCMS compound levels, in vivo mouse model; parameters: species or system mice; conditions: for concentration at 1 h / concentration at 2 h: male, C57BL/6J, mouse, plasma; for concentration at 1 h: 1 h after final application; for concentration at 2 h: 2 h after final application; for Plasma LCMS Compound Levels: pre-dose (16 h)
Experimental: These mice were also shaved weekly.
Week 4 (Experiment end): Skin and blood were collected right before the last morning dose (N=3), 1 hour (N=3 mice), and 2 hours (N=3 mice) after final application; Blood draw: Plasma compound levels (LCMS); Skin biopsy: formalin fixed for histology and p-ERK staining, flash frozen for Western analysis and skin compound levels (LCMS)
Compound level analysis: Liquid chromatography with mass spectrometry method (LCMS) was used to detect compound levels in the skin and plasma. Tissues were preprocessed prior to LCMS as follows. Tissues were minced and incubated with collagenase and then finally homogenized using the stainless steel beads prior to LCMS analysis. Calibration curves and a QC test were run with each assay.

Cn1c(Nc2ccc(I)cc2F)c(C(=O)NOCCO)c2cccnc21 [Example 2, 2-((2-Fluoro-4-iodophenyl)amino)—N-(2-hydroxyethoxy)-1-methyl-1H-pyrrolo[2,3-b]pyridine-3-carboxamide]
IC50 [1]: 246 nM | Survival Rates ([2]; topical 0.1%, Day 0): 100% | Survival Rates ([2]; topical 0.1%, Day 3): 100% | Survival Rates ([2]; topical 0.1%, Day 6): 100% | Survival Rates ([2]; topical 0.1%, Day 9): 100% | Survival Rates ([2]; topical 0.1%, Day 12): 100% | Survival Rates ([2]; topical 0.1%, Day 15): 100% | Survival Rates ([2]; topical 0.1%, Day 18): 100% | Survival Rates ([2]; topical 0.1%, Day 21): 100% | Survival Rates ([2]; topical 0.1%, Day 24): 100% | Survival Rates ([2]; topical 0.1%, Day 25): 100% | Survival Rates ([2]; topical 0.5%, Day 0): 100% | Survival Rates ([2]; topical 0.5%, Day 3): 100% | Survival Rates ([2]; topical 0.5%, Day 6): 100% | Survival Rates ([2]; topical 0.5%, Day 9): 100% | Survival Rates ([2]; topical 0.5%, Day 12): 100% | Survival Rates ([2]; topical 0.5%, Day 15): 100% | Survival Rates ([2]; topical 0.5%, Day 18): 100% | Survival Rates ([2]; topical 0.5%, Day 21): 100% | Survival Rates ([2]; topical 0.5%, Day 24): 100% | Survival Rates ([2]; topical 0.5%, Day 25): 100% | Survival Rates ([2]; topical 1%, Day 0): 100% | Survival Rates ([2]; topical 1%, Day 3): 100% | Survival Rates ([2]; topical 1%, Day 6): 100% | Survival Rates ([2]; topical 1%, Day 9): 100% | Survival Rates ([2]; topical 1%, Day 12): 100% | Survival Rates ([2]; topical 1%, Day 15): 100% | Survival Rates ([2]; topical 1%, Day 18): 100% | Survival Rates ([2]; topical 1%, Day 21): 100% | Survival Rates ([2]; topical 1%, Day 24): 100% | Survival Rates ([2]; topical 1%, Day 25): 100% | systemic toxicity compared to topical Trametinib ([2]; topical application): less systemic toxicity | survival ([2]; topically applied 0.1%, 0.5%, and 1% formulations, 25 days): All mice survived | Assay 5: human liver S9 instrinsic clearance value ([3]; Table 2, 1 μM, 2 mg/mL S9 protein, NADPH): 21.45 μL/min/mg protein | microsomal CLint at 1 μM ([3]; pH 7.4, Table 1, human liver S9 fraction, read-out: CLint): 21.4 µL/min/mg | half-life at 1 μM ([3]; pH 7.4, Table 1, human liver S9 fraction, read-out: Liver S9 t1/2): 16 min | concentration at 1 h ([4]; topical 0.1%): 174 ng/mL | concentration at 2 h ([4]; topical 0.1%): 37.9 ng/mL | concentration at 1 h ([4]; topical 0.5%): 1040 ng/mL | concentration at 2 h ([4]; topical 0.5%): 102 ng/mL | concentration at 1 h ([4]; topical 1%): 1020 ng/mL | concentration at 2 h ([4]; topical 1%): 262 ng/mL | Plasma LCMS Compound Levels ([4]; topical 0.1%): 1.18 ng/mL | Plasma LCMS Compound Levels ([4]; topical 0.5%): 4.78 ng/mL | Plasma LCMS Compound Levels ([4]; topical 1%): 24.98 ng/mL
